Measured values published in patent US20170314074A1, “LPA-ASSOCIATED PROTEIN AND RNA EXPRESSION” (Intermune, Inc., priority 2014, published 2017).

System: normal human lung fibroblasts, human bronchial epithelial cells, and human pulmonary alveolar epithelial cells
Assay: Secreted protein expression after LPA induction, aptamer-based proteomic platform (SomaLogic, 1129 proteins)
Type: cell-based
Details: 24 hours
Description: Changes in gene expression after 3 hours of LPA induction were profiled on Affymetrix Human Gene ST 2.0 microarrays; differentially expressed genes identified by ANOVA with FDR <0.05 and fold-change >1.2. Process networks associated with differentially expressed genes were defined using MetaCore. Changes in secreted protein expression after 24 hours of LPA induction were profiled on an aptamer-based proteomic platform (1129 proteins); differentially expressed proteins identified by t-test.
Treatment of cells with LPA, isolation supernatant, analysis of secreted protein expression using soma panel was performed as follows: Supernatant was collected from in vitro cultures of normal human lung fibroblasts, human bronchial epithelial cells, and human pulmonary alveolar epithelial cells treated for 24 hours with LPA and/or LPAR1 inhibitor. Each treatment condition was assayed in triplicate. 1129 proteins were profiled using a broad aptamer-based proteomic platform (SomaLogic, Colo., US). Briefly, the technology uses DNA aptamers containing chemically modified nucleotides as highly specific protein binding reagents in a multiplexed assay that transforms the quantity of each targeted protein into a corresponding quantify of the aptamer. Protein quantities are then detected on a microarray platform and recorded as Relative Fluorescence Units (RFU).
In Tables 1-5 The differentially expressed secreted proteins set forth in Tables 1, 2, and 5 and the differentially expressed mRNAs set forth in Table 3 and 4 were identified by visual inspection of individual dot-plots.
For the gene and protein expression analysis primary fibroblasts (NHLF product #CC-2512 from Lonza group LTD) and primary epithelial cells (NHBE Product #CC-2540 from Lonza; HPAEpiC Product #3200 from Sciencell (USA, California)) were cultured as recommended by the manufacturer, except they were cultured on collagen coated plates. As part of the induction protocol cells were starved overnight in low (0.2 or 0.1% serum) or no serum (0%), prior to stimulation with LPA.

lysophosphatidic acid [LPA]
effect of LPA, 41 (EPB41): up
effect of LPA, ADAM 9 (ADAM9): up
effect of LPA, ALCAM (ALCAM): up
effect of LPA, ANGL4 (ANGPTL4): up
effect of LPA, AREG (AREG): up
effect of LPA, ARTS1 (ERAP1): up
effect of LPA, ASM3A (SMPDL3A): up
effect of LPA, ATS1 (ADAMTS1): down
effect of LPA, Activin A (INHBA): up
effect of LPA, Aminoacylase-1 (ACY1): up
effect of LPA, Angiogenin (ANG): up
effect of LPA, Angiopoietin-1 (ANGPT1): up
effect of LPA, Angiopoietin-2 (ANGPT2): down
effect of LPA, Angiostatin (PLG): down
effect of LPA, Apo E2 (APOE): down
effect of LPA, Apo E3 (APOE): down
effect of LPA, B7-H1 (CD274): up
effect of LPA, BASI (BSG): up
effect of LPA, BFL1 (BCL2A1): up
effect of LPA, BGH3 (TGFBI): up
effect of LPA, BGN (BGN): up
effect of LPA, BSSP4 (PRSS22): up
effect of LPA, Bone proteoglycan II (DCN): up
effect of LPA, CAPG (CAPG): up
effect of LPA, CATZ (CTSZ): up
effect of LPA, CK2-A1:B (CSNK2A1 CSNK2B): up
effect of LPA, COMMD7 (COMMD7): up
effect of LPA, CRDL1 (CHRDL1): up
effect of LPA, CTAP-III (PPBP): up
effect of LPA, Caspase-3 (CASP3): up
effect of LPA, Cathepsin A (CTSA): up
effect of LPA, Cathepsin H (CTSH): up
effect of LPA, Cathepsin S (CTSS): up
effect of LPA, Cathepsin V (CTSL2): up
effect of LPA, Coagulation Factor Xa (F10): down
effect of LPA, Cofilin-1 (CFL1): up
effect of LPA, Cyclophilin A (PPIA): up
effect of LPA, Cystatin M (CST6): up
effect of LPA, DAF (CD55): up
effect of LPA, DBNL (DBNL): up
effect of LPA, DERM (DPT): down
effect of LPA, DKK1 (DKK1): up
effect of LPA, DKK3 (DKK3): up
effect of LPA, DPP2 (DPP7): up
effect of LPA, DcR3 (TNFRSF6B): up
effect of LPA, Discoidin domain receptor 2 (DDR2): up
effect of LPA, Dkk-4 (DKK4): up
effect of LPA, EMR2 (EMR2): up
effect of LPA, ENA-78 (CXCL5): up
effect of LPA, EPHA3 (EPHA3): up
effect of LPA, EPI (EREG): up
effect of LPA, Elafin (PI3): up
effect of LPA, Endocan (ESM1): up
effect of LPA, Endothelin-converting enzyme 1 (ECE1): up
effect of LPA, Eotaxin (CCL11): up
effect of LPA, EphB4 (EPHB4): up
effect of LPA, Ephrin-A5 (EFNA5): up
effect of LPA, Ephrin-B3 (EFNB3): up
effect of LPA, Epithelial cell kinase (EPHA2): up
effect of LPA, FCAR (FCAR): down
effect of LPA, FGF7 (FGF7): up
effect of LPA, FGF-18 (FGF18): down
effect of LPA, FGF-20 (FGF20): up
effect of LPA, FST (FST): up
effect of LPA, FSTL3 (FSTL3): up
effect of LPA, Flt-3 (FLT3): up
effect of LPA, G-CSF (CSF3): up
effect of LPA, GAPDH liver (GAPDH): up
effect of LPA, GCP-2 (CXCL6): up
effect of LPA, GDF-9 (GDF9): down
effect of LPA, GREM1 (GREM1): up
effect of LPA, GRN (GRN): up
effect of LPA, GV (PLA2G5): up
effect of LPA, Galectin-3 (LGALS3): up
effect of LPA, Gro-a (CXCL1): up
effect of LPA, Gro-b/g (CXCL3 CXCL2): up
effect of LPA, HGF (HGF): up
effect of LPA, IDE (IDE): up
effect of LPA, IGF-I sR (IGF1R): up
effect of LPA, IGF-II receptor (IGF2R): up
effect of LPA, IGFBP-2 (IGFBP2): down
effect of LPA, IGFBP-3 (IGFBP3): up
effect of LPA, IGFBP-7 (IGFBP7): up
effect of LPA, IL-1 R4 (IL1RL1): up
effect of LPA, IL-6 (IL6): up
effect of LPA, IL-6 sRa (IL6R): up
effect of LPA, IL-8 (IL8): up
effect of LPA, IL-11 (IL11): up
effect of LPA, IL-12 RB2 (IL12RB2): up
effect of LPA, IL-17D (IL17D): up
effect of LPA, IP-10 (CXCL10): up
effect of LPA, JAG1 (JAG1): up
effect of LPA, JAG2 (JAG2): up
effect of LPA, KPCI (PRKCI): up
effect of LPA, LG3BP (LGALS3BP): up
effect of LPA, LGMN (LGMN): up
effect of LPA, LRIG3 (LRIG3): up
effect of LPA, Layilin (LAYN): up
effect of LPA, MCP-1 (CCL2): up
effect of LPA, MCP-3 (CCL7): up
effect of LPA, MICA (MICA): up
effect of LPA, MICB (MICB): up
effect of LPA, MIP-3a (CCL20): up
effect of LPA, MMP-1 (MMP1): up
effect of LPA, MMP-3 (MMP3): up
effect of LPA, MMP-9 (MMP9): up
effect of LPA, MMP-10 (MMP10): up
effect of LPA, MMP-12 (MMP12): up
effect of LPA, MMP-13 (MMP13): up
effect of LPA, MRC2 (MRC2): up
effect of LPA, Met (MET): up
effect of LPA, Midkine (MDK): up
effect of LPA, NAGK (NAGK): up
effect of LPA, NAP-2 (PPBP): up
effect of LPA, NCAM-L1 (L1CAM): up
effect of LPA, NET4 (NTN4): up
effect of LPA, NID2 (NID2): up
effect of LPA, NKp46 (NCR1): up
effect of LPA, NRP1 (NRP1): up
effect of LPA, NRX3B (NRXN3): up
effect of LPA, NXPH1 (NXPH1): up
effect of LPA, Neurotrophin-3 (NTF3): up
effect of LPA, Nogo Receptor (RTN4R): up
effect of LPA, NovH (NOV): up
effect of LPA, OMD (OMD): up
effect of LPA, ON (SPARC): up
effect of LPA, PAI-1 (SERPINE1): up
effect of LPA, PARK7 (PARK7): up
effect of LPA, PCSK7 (PCSK7): up
effect of LPA, PDGF-AA (PDGFA): up
effect of LPA, PDGF-BB (PDGFB): up
effect of LPA, PTHrP (PTHLH): up
effect of LPA, Protease nexin I (SERPINE2): up
effect of LPA, RAC1 (RAC1): up
effect of LPA, RANTES (CCL5): up
effect of LPA, RAP (LRPAP1): up
effect of LPA, RGMB (RGMB): up
effect of LPA, ROBO2 (ROBO2): up
effect of LPA, SARP-2 (SFRP1): up
effect of LPA, SCGF-alpha (CLEC11A): up
effect of LPA, SDF-1 (CXCL12): up
effect of LPA, SLIK5 (SLITRK5): up
effect of LPA, ST4S6 (CHST15): up
effect of LPA, Semaphorin 3A (SEMA3A): up
effect of LPA, Sphingosine kinase 1 (SPHK1): up
effect of LPA, Spondin-1 (SPON1): down
effect of LPA, TAJ (TNFRSF19): up
effect of LPA, TFPI (TFPI): up
effect of LPA, TGF-b R III (TGFBR3): up
effect of LPA, TIG2 (RARRES2): up
effect of LPA, TIMP-3 (TIMP3): up
effect of LPA, TNF sR-I (TNFRSF1A): up
effect of LPA, TNF sR-II (TNFRSF1B): up
effect of LPA, TNFSF15 (TNFSF15): up
effect of LPA, TSG-6 (TNFAIP6): up
effect of LPA, TSLP (TSLP): up
effect of LPA, TSP2 (THBS2): up
effect of LPA, TWEAK (TNFSF12): down
effect of LPA, TXD12 (TXNDC12): up
effect of LPA, Thrombospondin-1 (THBS1): up
effect of LPA, TrATPase (ACP5): down
effect of LPA, UNC5H3 (UNC5C): up
effect of LPA, URB (CCDC80): up
effect of LPA, VEGF121 (VEGFA): up
effect of LPA, VEGF (VEGFA): up
effect of LPA, VEGF-C (VEGFC): up
effect of LPA, WKFN1 (GPRASP2): down
effect of LPA, annexin I (ANXA1): up
effect of LPA, discoidin domain receptor 1 (DDR1): up
effect of LPA, eIF-5A-1 (EIF5A): down
effect of LPA, sFRP-3 (FRZB): down
effect of LPA, suPAR (PLAUR): up
effect of LPA, uPA (PLAU): up
